Source: ChEMBL document CHEMBL1250448, “Inhibitor hijacking of Akt activation” (Nat Chem Biol, 2009)
One block for each compound: values may come before it. The source made the active and inactive calls. The rule behind the calls is not given here.

How the values were obtained:
[1] = test system: MCF7; test: Induction of myristoylated AKT2 M225G mutant Thr308 hyperphosphorylation expressed in MCF7 cells at 2.5 uM after 30 mins by immunoblotting; assay type: cell-based
[2] = test system: RAC-alpha serine/threonine-protein kinase (Homo sapiens), P31749 [M227G]; test: Induction of myristoylated AKT1 M227G Thr308 hyperphosphorylation expressed in PC3 cells at 2.5 uM after 30 mins by immunoblotting; assay type: cell-based; settings: PC-3
Sequence of RAC-alpha serine/threonine-protein kinase (Homo sapiens), P31749 [M227G] (P31749 whole entry M227G): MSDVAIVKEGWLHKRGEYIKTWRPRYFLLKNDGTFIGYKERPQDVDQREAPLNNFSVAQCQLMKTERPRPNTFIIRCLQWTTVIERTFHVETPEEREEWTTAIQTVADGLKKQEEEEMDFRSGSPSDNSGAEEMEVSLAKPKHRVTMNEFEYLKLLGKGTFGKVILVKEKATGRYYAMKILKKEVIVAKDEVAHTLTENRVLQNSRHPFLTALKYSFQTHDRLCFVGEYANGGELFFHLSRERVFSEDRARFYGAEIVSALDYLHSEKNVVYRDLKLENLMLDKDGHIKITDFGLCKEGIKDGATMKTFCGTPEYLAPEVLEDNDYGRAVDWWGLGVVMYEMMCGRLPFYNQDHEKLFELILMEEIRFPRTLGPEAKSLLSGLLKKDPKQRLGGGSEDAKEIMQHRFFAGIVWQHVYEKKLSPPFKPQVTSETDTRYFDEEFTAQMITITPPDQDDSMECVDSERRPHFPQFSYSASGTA

[3] = test system: HEK-293T; test: Induction myristoylated AKT2 M225G mutant Thr308 hyperphosphorylation expressed in HEK293T cells at 2.5 uM after 30 mins pretreated with PDK1 inhibitor BX-795 for 10 mins before compound addition by immunoblotting; assay type: cell-based
[4] = test system: PC-3; test: Induction of myristoylated AKT2 M225G mutant Thr308 hyperphosphorylation expressed in PC3 cells at 2.5 uM after 30 mins by immunoblotting; assay type: cell-based
[5] = test system: RAC-alpha serine/threonine-protein kinase (Homo sapiens), P31749 [M227G]; test: Induction of myristoylated AKT1 M227G mutant Thr308 hyperphosphorylation expressed in HEK293T cells at 2.5 uM after 30 mins pretreated with mTOR kinase inhibitor PP242 for 10 mins before compound addition by immunoblotting; assay type: cell-based; settings: HEK-293T
[6] = test system: RAC-alpha serine/threonine-protein kinase (Homo sapiens), P31749 [M227G]; test: Induction of myristoylated AKT1 M227G mutant Ser473 hyperphosphorylation expressed in HEK293T cells at 2.5 uM after 30 mins pretreated with pan-PI3K inhibitor PIK90 for 10 mins before compound addition by immunoblotting; assay type: cell-based; settings: HEK-293T
[7] = test system: RAC-alpha serine/threonine-protein kinase (Homo sapiens), P31749 [M227G]; test: Induction of membrane localized myristoylated AKT1 M227G mutant Thr308 hyperphosphorylation expressed in HEK293T cells at 2.5 uM after 30 mins by immunoblotting; assay type: cell-based; settings: HEK-293T
[8] = test system: RAC-alpha serine/threonine-protein kinase (Homo sapiens), P31749 [M227G,D292A]; test: Induction of myristoylated AKT1 M227G and kinase dead D292A mutant Thr308 hyperphosphorylation expressed in MiaPaCa2 cells at 2.5 uM after 30 mins by immunoblotting; assay type: cell-based
Sequence of RAC-alpha serine/threonine-protein kinase (Homo sapiens), P31749 [M227G,D292A] (P31749 whole entry M227G/D292A): as the sequence (P31749 whole entry M227G) above, with D292A counted along it

[9] = test system: RAC-alpha serine/threonine-protein kinase (Homo sapiens), P31749 [M227G,D292A]; test: Induction of myristoylated AKT1 M227G and kinase dead D292A mutant Thr308 hyperphosphorylation expressed in MCF7 cells at 2.5 uM after 30 mins by immunoblotting; assay type: cell-based
[10] = test system: RAC-alpha serine/threonine-protein kinase (Homo sapiens), P31749 [M227G,D292A]; test: Induction of myristoylated AKT1 M227G and kinase dead D292A mutant Thr308 hyperphosphorylation expressed in HEK293T cells at 2.5 uM after 30 mins by immunoblotting; assay type: cell-based; settings: HEK-293T
[11] = test system: RAC-alpha serine/threonine-protein kinase (Homo sapiens), P31749 [M227G]; test: Induction of myristoylated AKT1 M227G mutant Ser473 hyperphosphorylation expressed in HEK293 cells after 30 mins by immunoblotting; settings: HEK-293
[12] = test system: RAC-alpha serine/threonine-protein kinase (Homo sapiens), P31749 [M227G,D292A]; test: Induction of myristoylated AKT1 M227G and kinase dead D292A mutant Ser473 hyperphosphorylation expressed in MCF7 cells at 2.5 uM after 30 mins by immunoblotting; assay type: cell-based
[13] = test system: RAC-alpha serine/threonine-protein kinase (Homo sapiens), P31749 [M227G,R25C]; test: Induction of myristoylated AKT1 M227G and R25C mutant Thr308 hyperphosphorylation expressed in HEK293T cells at 2.5 uM after 30 mins by immunoblotting; assay type: cell-based; settings: HEK-293T
Sequence of RAC-alpha serine/threonine-protein kinase (Homo sapiens), P31749 [M227G,R25C] (P31749 whole entry R25C/M227G): as the sequence (P31749 whole entry M227G) above, with R25C counted along it

[14] = test system: RAC-alpha serine/threonine-protein kinase (Homo sapiens), P31749 [M227G]; test: Induction of myristoylated AKT1 M227G mutant Ser473 hyperphosphorylation expressed in HEK293T cells at 2.5 uM after 30 mins by immunoblotting; assay type: cell-based; settings: HEK-293T
[15] = test system: RAC-alpha serine/threonine-protein kinase (Homo sapiens), P31749 [M227G,D292A]; test: Induction of myristoylated AKT1 M227G and kinase dead D292A mutant Ser473 hyperphosphorylation expressed in MiaPaCa2 cells at 2.5 uM after 30 mins by immunoblotting; assay type: cell-based
[16] = test system: HEK-293T; test: Induction myristoylated AKT2 M225G mutant Ser473 hyperphosphorylation expressed in HEK293T cells at 2.5 uM after 30 mins by immunoblotting; assay type: cell-based
[17] = test system: PC-3; test: Induction of myristoylated AKT2 M225G and kinase dead D289A mutant Ser473 hyperphosphorylation expressed in PC3 cells at 2.5 uM after 30 mins by immunoblotting; assay type: cell-based
[18] = test system: RAC-alpha serine/threonine-protein kinase (Homo sapiens), P31749 [M227G,D292A]; test: Induction of myristoylated AKT1 M227G and kinase dead D292A mutant Thr308 hyperphosphorylation expressed in PC3 cells at 2.5 uM after 30 mins by immunoblotting; assay type: cell-based; settings: PC-3
[19] = test system: HEK-293T; test: Induction of myristoylated AKT3 M229G mutant Ser473 hyperphosphorylation expressed in HEK293T cells at 2.5 uM after 30 mins pretreated with PDK1 inhibitor BX-795 for 10 mins before compound addition by immunoblotting; assay type: cell-based
[20] = test system: RAC-alpha serine/threonine-protein kinase (Homo sapiens), P31749 [M227G]; test: Induction of AKT1 M227G Ser473 hyperphosphorylation expressed in HEK293 cells at 2.5 uM after 30 mins pretreated with allosteric AKT inhibitor Akti-1,2 10 mins before compound addition by immunoblotting
[21] = test system: HEK-293T; test: Induction of myristoylated AKT3 M229G mutant Thr308 hyperphosphorylation expressed in HEK293T cells at 2.5 uM after 30 mins pretreated with pan-PI3K inhibitor PIK90 for 10 mins before compound addition by immunoblotting; assay type: cell-based
[22] = test system: RAC-alpha serine/threonine-protein kinase (Homo sapiens), P31749 [M227G,R25C]; test: Induction of myristoylated AKT1 M227G and R25C mutant Ser473 hyperphosphorylation expressed in HEK293T cells at 2.5 uM after 30 mins by immunoblotting; assay type: cell-based; settings: HEK-293T
[23] = test system: RAC-alpha serine/threonine-protein kinase (Homo sapiens), P31749 [M227G]; test: Induction of myristoylated AKT1 M227G Ser473 hyperphosphorylation expressed in MiaPaCa2 cells at 2.5 uM after 30 mins by immunoblotting; assay type: cell-based
[24] = test system: RAC-alpha serine/threonine-protein kinase (Homo sapiens), P31749 [M227G]; test: Induction of myristoylated AKT1 M227G mutant Thr308 hyperphosphorylation expressed in HEK293 cells at 2.5 uM after 30 mins by immunoblotting; settings: HEK-293
[25] = test system: HEK-293T; test: Induction myristoylated AKT2 M225G mutant Ser473 hyperphosphorylation expressed in HEK293T cells at 2.5 uM after 30 mins pretreated with pan-PI3K inhibitor PIK90 for 10 mins before compound addition by immunoblotting; assay type: cell-based
[26] = test system: RAC-alpha serine/threonine-protein kinase (Homo sapiens), P31749 [M227G]; test: Induction of myristoylated AKT1 M227G mutant Ser473 hyperphosphorylation expressed in HEK293T cells at 2.5 uM after 30 mins pretreated with mTOR kinase inhibitor PP242 for 10 mins before compound addition by immunoblotting; assay type: cell-based; settings: HEK-293T
[27] = biological target: RAC-alpha serine/threonine-protein kinase (Rattus norvegicus) (UniProt P47196); test: Induction AKT1 Ser473 hyperphosphorylation in insulin-induced rat L6 cells after 20 mins before insulin stimulation by immunoblotting; assay type: cell-based
Sequence of RAC-alpha serine/threonine-protein kinase (Rattus norvegicus) (P47196 whole entry): as the sequence (P31749 whole entry M227G) above, with S2N, D46E, A50S, K112R, E117T, S137A, G227M, K389T, G410N, H415D counted along it

[28] = biological target: Ribosomal protein S6 kinase beta-1 (Homo sapiens, UniProt P23443); test: Inhibition of S6K1
Sequence of Ribosomal protein S6 kinase beta-1 (P23443 whole entry): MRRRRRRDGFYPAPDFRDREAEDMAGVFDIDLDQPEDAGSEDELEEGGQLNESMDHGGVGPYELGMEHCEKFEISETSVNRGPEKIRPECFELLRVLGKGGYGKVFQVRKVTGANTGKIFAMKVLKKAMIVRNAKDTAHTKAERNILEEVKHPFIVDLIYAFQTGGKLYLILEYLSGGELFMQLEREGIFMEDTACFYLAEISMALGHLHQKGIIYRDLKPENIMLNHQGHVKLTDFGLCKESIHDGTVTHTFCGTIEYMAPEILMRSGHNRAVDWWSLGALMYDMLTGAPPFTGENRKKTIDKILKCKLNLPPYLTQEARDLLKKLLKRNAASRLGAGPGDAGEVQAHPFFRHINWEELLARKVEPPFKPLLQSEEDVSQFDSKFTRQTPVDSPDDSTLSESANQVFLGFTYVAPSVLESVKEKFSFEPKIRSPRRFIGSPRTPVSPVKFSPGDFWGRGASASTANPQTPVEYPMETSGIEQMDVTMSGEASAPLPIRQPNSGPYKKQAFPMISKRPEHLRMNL

[29] = biological target: RAC-alpha serine/threonine-protein kinase (Rattus norvegicus) (UniProt P47196); test: Induction AKT1 Thr308 hyperphosphorylation in insulin-induced rat L6 cells after 20 mins before insulin stimulation by immunoblotting; assay type: cell-based

Activity [2]: Active
Activity [5]: Active
Activity [6]: inactive
Activity [7]: Active
Activity [8]: Active
Activity [9]: Active
Activity [10]: Active
Activity [11]: Dose-dependent effect
Activity [12]: Active
Activity [13]: inactive
Activity [14]: Active
Activity [15]: Active
Activity [18]: Active
Activity [20]: inactive
Activity [22]: inactive
Activity [23]: Active
Activity [24]: Active
Activity [26]: inactive
Compound: CCCc1cc(-c2cncc(OC[C@@H](N)Cc3c[nH]c4ccccc34)c2)cc2c(C)n[nH]c12
Activity [1]: Active
Activity [3]: inactive
Activity [4]: Active
Activity [16]: Active
Activity [17]: Active
Activity [19]: inactive
Activity [21]: inactive
Activity [25]: inactive

Activity [27]: inactive
IC50 [28]: 9.1 nM
Activity [29]: inactive
Compound: COc1ccccc1N1CCN(c2ncnc3[nH]nc(Br)c23)CC1
